Experimental data taken from US12378195B2, “Aminated psilocybin derivatives and methods of using” (Enveric Biosciences Canada Inc., priority 2021, dated 2025).

How the values were obtained:
5-HT2A receptor = target: T1, 5-HT2A receptor (Homo sapiens, UniProt P28223); assay: [3H]ketanserin competition binding assay (Scintillation Proximity Assay); conditions: fixed (1 nM) [3H]ketanserin; membranes containing 5-HT2A; FIG. 11E
T1 construct: purchased PerkinElmer ES-313-M400UA
Source text: Evaluation of drug binding is an essential step to characterization of all drug-target interactions (Fang 2012, Exp Opin Drug Discov 7:969). The binding affinity of a drug to a target is traditionally viewed as an acceptable surrogate of its in vivo efficacy (Núnez et al., 2012, Drug Disc Today 17: 10). Competition assays, also called displacement or modulation binding assays, are a common approach to measure activity of a ligand at a target receptor (Flanagan 2016, Methods Cell Biol 132: 191). In these assays, standard radioligands acting either as agonists or antagonists are ascribed to specific receptors. […] After incubation, the samples were read on a MicroBeta 2 Microplate Counter (Perkin Elmer). […] Equilibrium binding constants for ketanserin (Kd) were determined from saturation binding curves using the ‘one-site saturation binding analysis’ method of GraphPad PRISM software (Version 9.2.0). […] Ki values were calculated from the competition displacement data using the competitive binding analysis from GraphPad PRISM software. […] Specific binding in counts per minute (cpm) was calculated by subtracting non-specific binding from total binding. Specific binding (pmol/mg) was calculated from pmol of [^3H]ketanserin bound per mg of protein in the assay. The Kd was calculated by fitting the data with the one-site binding model of PRISM software (version 9.2.0).

5-HT1A receptor = target: T2, 5-HT1A receptor (Homo sapiens, UniProt P08908); assay: cAMP-Glo luminescence assay in +5-HT1A cells (CHO-K1/5-HT1A/Gα15) with forskolin; assay type: cell-based; conditions: +5HT1A cell cultures, fixed (4 μM) forskolin, n=3; for luminescence (cAMP) trend with decreasing ligand dosage, 5-HT1A modulation: FIGS. 11J, 11K; for % cAMP levels with decreasing ligand dosage, 5-HT1A activity: FIGS. 11L, 11M
T2 construct: host or cells: CHO-K1 (stably expressing 5-HT1A and Gα15)
T2 sequence (P08908 1-422): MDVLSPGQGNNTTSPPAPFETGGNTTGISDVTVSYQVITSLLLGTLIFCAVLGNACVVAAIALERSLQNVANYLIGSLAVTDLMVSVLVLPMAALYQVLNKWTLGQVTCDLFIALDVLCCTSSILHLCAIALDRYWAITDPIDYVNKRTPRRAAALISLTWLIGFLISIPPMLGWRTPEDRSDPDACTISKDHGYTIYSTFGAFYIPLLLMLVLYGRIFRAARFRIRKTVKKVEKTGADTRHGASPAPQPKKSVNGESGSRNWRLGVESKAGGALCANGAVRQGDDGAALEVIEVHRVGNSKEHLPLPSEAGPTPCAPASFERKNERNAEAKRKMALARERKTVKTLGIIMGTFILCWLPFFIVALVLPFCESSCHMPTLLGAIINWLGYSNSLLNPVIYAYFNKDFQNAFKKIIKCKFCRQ
Source text: CHO-K1/Gα15 (GenScript, M00257) (−5-HT1A) and CHO-K1/5-HT1A/Gα15 (GenScript, M00330) (+5-HT1A) cells lines were used. Briefly, CHO-K1/Gα15 is a control cell line that constitutively expresses Gα15 which is a promiscuous Gq protein. This control cell line lacks any transgene encoding 5-HT1A receptors, but still responds to forskolin; thus, cAMP response to forskolin should be the same regardless of whether or not 5-HT1A agonists are present. Conversely, CHO-K1/5-HT1A/Gα15 cells stably express 5-HT1A receptor in the CHO-K1 host background. […] In +5-HT1A cells, Gα15 may be recruited in place of Gαi/o, which could theoretically dampen cAMP response (Rojas and Fiedler 2016, Front Cell Neurosci 10: 272). […] In contrast, tryptophan is not known to activate, or modulate in any way, 5-HT1A receptors, and was thus used as a negative control. Cells were maintained in complete growth media as recommended by supplier (GenScript) which is constituted as follows: Ham's F12 Nutrient mix (HAM's F12, GIBCO #11765-047) with 10% fetal bovine serum (FBS) (Thermo Scientific #12483020), 200 μg/ml zeocin (Thermo Scientific #R25005) and/or 100 μg/ml hygromycin (Thermo Scientific #10687010). The cells were cultured in a humidified incubator with 37° C. and 5% CO2. Cells maintenance was carried out as recommended by the cell supplier. Briefly, vials with cells were removed from the liquid nitrogen and thawed quickly in 37° C. water bath. Just before the cells were completely thawed the vial's outside was decontaminated by 70% ethanol spray. The cell suspension was then retrieved from the vial and added to warm (37° C.) complete growth media, and centrifuged at 1,000 rpm for 5 minutes. The supernatant was discarded, and the cell pellet was then resuspended in another 10 ml of complete growth media, and added to the 10 cm cell culture dish (Greiner Bio-One #664160). The media was changed every third day until the cells were about 90% confluent. The ˜90% confluent cells were then split 10:1 for maintenance or used for experiment.
(§1) As 5-HT1A activation inhibits cAMP formation, the ability of test molecules to modulate 5-HT1A response was measured via changes in the levels of cAMP produced due to application of 4 μM forskolin. The change in intracellular cAMP levels due to the treatment of novel molecules was measured using cAMP-Glo Assay kit (Promega #V1501). […] Reduced ATP caused reduced conversion of luciferin to oxyluciferin, conferring diminished luminescence as the result of 5-HT1A activation. Conversely, enhanced luminescence was expected in cases where 5-HT1A receptor modulation—imparted by a test molecule—caused downstream increases in ATP, thus imparting enhanced conversion of luciferin to oxyluciferin.

[1] = system: CHO-K1/Gα15 (−5-HT1A) cells; assay: cAMP-Glo assay in control −5-HT1A cells (CHO-K1/Gα15) with forskolin; assay type: cell-based; conditions: −5HT1A cell cultures; fixed (4 μM) forskolin; n=3; FIGS. 11L, 11M
Source text: CHO-K1/Gα15 (GenScript, M00257) (−5-HT1A) and CHO-K1/5-HT1A/Gα15 (GenScript, M00330) (+5-HT1A) cells lines were used. Briefly, CHO-K1/Gα15 is a control cell line that constitutively expresses Gα15 which is a promiscuous Gq protein. This control cell line lacks any transgene encoding 5-HT1A receptors, but still responds to forskolin; thus, cAMP response to forskolin should be the same regardless of whether or not 5-HT1A agonists are present. Conversely, CHO-K1/5-HT1A/Gα15 cells stably express 5-HT1A receptor in the CHO-K1 host background. […] In +5-HT1A cells, Gα15 may be recruited in place of Gαi/o, which could theoretically dampen cAMP response (Rojas and Fiedler 2016, Front Cell Neurosci 10: 272). […]
as §1

T1 sequence (P28223 whole entry): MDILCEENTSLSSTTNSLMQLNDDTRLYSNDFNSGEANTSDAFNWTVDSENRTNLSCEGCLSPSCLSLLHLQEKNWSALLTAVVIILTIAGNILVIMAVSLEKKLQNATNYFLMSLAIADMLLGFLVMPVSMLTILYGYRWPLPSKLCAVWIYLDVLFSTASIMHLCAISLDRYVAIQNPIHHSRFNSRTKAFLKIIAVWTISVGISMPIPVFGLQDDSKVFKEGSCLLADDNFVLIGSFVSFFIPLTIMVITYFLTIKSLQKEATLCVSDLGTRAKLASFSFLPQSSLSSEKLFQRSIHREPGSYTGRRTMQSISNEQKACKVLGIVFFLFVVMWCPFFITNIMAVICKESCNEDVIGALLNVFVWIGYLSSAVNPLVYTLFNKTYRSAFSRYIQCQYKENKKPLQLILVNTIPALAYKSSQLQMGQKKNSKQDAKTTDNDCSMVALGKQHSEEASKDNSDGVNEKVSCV

| Compound | competition binding curve at the 5-HT2A receptor (5-HT2A receptor) | luminescence (cAMP) trend with decreasing ligand dosage, 5-HT1A modulation (5-HT1A receptor) | trend of increasing % cAMP levels with decreasing ligand dosage [1] | % cAMP levels with decreasing ligand dosage, 5-HT1A activity (5-HT1A receptor) |
| --- | --- | --- | --- | --- |
| N[C@@H](Cc1c[nH]c2ccccc12)C(=O)O [tryptophan] | no binding | lack of 5-HT1A modulation | – | – |
| NCCc1c[nH]c2ccc(O)cc12 [serotonin] | – | – | not observed | 5-HT1A binding activity |
| CN(C)CCc1c[nH]c2ccccc12 [DMT] | – | 5-HT1A activity | – | – |
| CN(C)CCc1c[nH]c2cccc(O)c12 [psilocin] | binding | – | – | – |
| COc1c(N)ccc2[nH]cc(CCN)c12 [compound (IX)] | – | – | not observed | 5-HT1A binding activity |
